Values after ≈ are worked out from the molar mass of the structure shown.
Tests used:
Type in all cases: functional
[1] = test system: Enterococcus faecium; assay: Antimicrobial activity against Vancomycin-resistant (Van A) Enterococcus faecium ATCC 51559 assessed as reduction in microbial growth
[2] = test system: Staphylococcus aureus; assay: Antibacterial activity against Vancomycin-intermediate Staphylococcus aureus NRS1 assessed as bacterial growth inhibition
[3] = test system: Enterococcus faecalis; assay: Antimicrobial activity against Vancomycin - resistant Enterococcus faecalis assessed as inhibition of bacterial growth
[4] = Enterococcus faecium, ATCC 51559, read-out: MIC

| Compound | MIC [1] | MIC [2] [µg/mL] | MIC [1, 4] | MIC [3] |
| --- | --- | --- | --- | --- |
| CN[C@H]1C(=O)N[C@@H]2Cc3ccc(cc3)Oc3cc4cc(c3O[C@@H]3O[C@H](C(=O)O)[C@@H](O)[C@H](O)[C@H]3NC(=O)CCCCCCCCC(C)C)Oc3ccc(cc3Cl)[C@@H](O)[C@@H]3NC(=O)[C@H](NC(=O)[C@@H]4NC(=O)[C@@H](NC2=O)c2cc(cc(O)c2Cl)Oc2cc1ccc2O)c1ccc(O)c(c1)-c1c(O[C@H]2O[C@H](CO)[C@@H](O)[C@H](O)[C@@H]2O)cc(O)cc1[C@@H](C(=O)NCCCN(C)C)NC3=O [DALBAVANCIN] | 0.1 µg/mL |  |  |  |
| CN[C@H](CC(C)C)C(=O)N[C@H]1C(=O)N[C@@H](CC(N)=O)C(=O)N[C@H]2C(=O)N[C@H]3C(=O)N[C@H](C(=O)N[C@H](C(=O)O)c4cc(O)cc(O)c4-c4cc3ccc4O)[C@H](O)c3ccc(c(Cl)c3)Oc3cc2cc(c3O[C@@H]2O[C@H](CO)[C@@H](O)[C@H](O)[C@H]2O[C@H]2C[C@](C)(NCc3cccc(OCC/C=C\CCOc4cccc(CN[C@@]5(C)C[C@H](O[C@H]6[C@H](Oc7c8cc9cc7Oc7ccc(cc7Cl)[C@@H](O)[C@@H](NC(=O)[C@@H](CC(C)C)NC)C(=O)N[C@@H](CC(N)=O)C(=O)N[C@H]9C(=O)N[C@H]7C(=O)N[C@H](C(=O)N[C@H](C(=O)O)c9cc(O)cc(O)c9-c9cc7ccc9O)[C@H](O)c7ccc(c(Cl)c7)O8)O[C@H](CO)[C@@H](O)[C@@H]6O)O[C@@H](C)[C@H]5O)c4)c3)[C@H](O)[C@H](C)O2)Oc2ccc(cc2Cl)[C@H]1O |  | 1 (≈ 0.313 µM) |  |  |
| CN[C@H](CC(C)C)C(=O)N[C@H]1C(=O)N[C@@H](CC(N)=O)C(=O)N[C@H]2C(=O)N[C@H]3C(=O)N[C@H](C(=O)N[C@H](C(=O)O)c4ccccc4-c4cccc3c4)[C@H](O)c3ccc(c(Cl)c3)Oc3cc2cc(c3O[C@@H]2O[C@H](CO)[C@@H](O)[C@H](O)[C@H]2O[C@H]2C[C@](C)(NCc3ccc(OCCCN4C(=O)[C@@H]5[C@H](C4=O)[C@@H](C)C[C@H]5/C=C/c4ccccc4)cc3)[C@H](O)[C@H](C)O2)Oc2ccc(cc2Cl)[C@H]1O | 2 µg/mL |  | 31 µg/mL |  |
| CCCCCCCCCC(=O)OC[C@H]1O[C@@H](Oc2c3cc4cc2Oc2ccc(cc2Cl)[C@@H](O)[C@@H](NC(=O)[C@@H](CC(C)C)NC)C(=O)N[C@@H](CC(N)=O)C(=O)N[C@H]4C(=O)N[C@H]2C(=O)N[C@H](C(=O)N[C@H](C(=O)O)c4ccccc4-c4cccc2c4)[C@H](O)c2ccc(c(Cl)c2)O3)[C@H](O[C@H]2C[C@](C)(N)[C@H](O)[C@H](C)O2)[C@@H](O)[C@@H]1O | 1 µg/mL |  |  |  |
| CN[C@H](CC(C)C)C(=O)N[C@H]1C(=O)N[C@@H](CC(N)=O)C(=O)N[C@H]2C(=S)N[C@H]3C(=O)N[C@H](C(=O)N[C@H](C(=O)O)c4cc(O)cc(O)c4-c4cc3ccc4O)[C@H](O)c3ccc(c(Cl)c3)Oc3cc2cc(c3O[C@@H]2O[C@H](CO)[C@@H](O)[C@H](O)[C@H]2O[C@H]2C[C@](C)(NCc3ccc(-c4ccc(Cl)cc4)cc3)[C@H](O)[C@H](C)O2)Oc2ccc(cc2Cl)[C@H]1O | 2 µg/mL |  | 4 µg/mL | 2 µg/mL |
| CN[C@H](CC(C)C)C(=O)N[C@H]1C(=O)N[C@@H](CC(N)=O)C(=O)N[C@H]2C(=N)N[C@H]3C(=O)N[C@H](C(=O)N[C@H](C(=O)O)c4cc(O)cc(O)c4-c4cc3ccc4O)[C@H](O)c3ccc(c(Cl)c3)Oc3cc2cc(c3O[C@@H]2O[C@H](CO)[C@@H](O)[C@H](O)[C@H]2O[C@H]2C[C@](C)(NCc3ccc(-c4ccc(Cl)cc4)cc3)[C@H](O)[C@H](C)O2)Oc2ccc(cc2Cl)[C@H]1O | 0.06 µg/mL |  | 0.005 µg/mL | 0.005 µg/mL |
| CCCCCCCCCC(=O)O[C@H]1[C@H](O)[C@@H](O[C@H]2C[C@](C)(N)[C@H](O)[C@H](C)O2)[C@H](Oc2c3cc4cc2Oc2ccc(cc2Cl)[C@@H](O)[C@@H](NC(=O)[C@@H](CC(C)C)NC)C(=O)N[C@@H](CC(N)=O)C(=O)N[C@H]4C(=O)N[C@H]2C(=O)N[C@H](C(=O)N[C@H](C(=O)O)c4ccccc4-c4cccc2c4)[C@H](O)c2ccc(c(Cl)c2)O3)O[C@@H]1CO |  |  | 16 µg/mL |  |
| C=C1NC(=O)[C@H]([C@@H](C)CC)NC(=O)[C@@H](NC(=O)/C(=C/C)NC(=O)[C@@H](N)[C@@H](C)CC)CSC[C@@H](C(=O)N[C@H]2C(=O)N3CCC[C@H]3C(=O)NCC(=O)N[C@H](C(=O)N[C@@H](CCCCN)C(=O)NCCCn3cc(CCC(=O)NCCCOCCOCCOCCCNC(=O)[C@H]4NC(=O)[C@H]5NC(=O)[C@H](NC(=O)[C@@H]6NC(=O)[C@H](CC(N)=O)NC(=O)[C@H](NC(=O)[C@@H](CC(C)C)NC)[C@H](O)c7ccc(c(Cl)c7)Oc7cc6cc(c7O[C@@H]6O[C@H](CO)[C@@H](O)[C@H](O)[C@H]6O[C@H]6C[C@](C)(N)[C@H](O)[C@H](C)O6)Oc6ccc(cc6Cl)[C@H]5O)c5ccc(O)c(c5)-c5c(O)cc(O)cc54)nn3)CS[C@@H]2C)NC(=O)[C@H]([C@@H](C)CC)NC1=O |  |  |  | 2.3 µM |
| CN[C@H](CC(C)C)C(=O)N[C@H]1C(=O)N[C@@H](CC(N)=O)C(=O)N[C@H]2C(=O)N[C@H]3C(=O)N[C@H](C(=O)N[C@H](C(=O)O)c4cc(O)cc(O)c4-c4cc3ccc4O)[C@H](O)c3ccc(c(Cl)c3)Oc3cc2cc(c3O[C@@H]2O[C@H](CO)[C@@H](O)[C@H](O)[C@H]2O[C@H]2C[C@](C)(N)[C@H](O)[C@H](C)O2)Oc2ccc(cc2/C=C/c2ccc(-c3ccccc3)cc2)[C@H]1O | 2 µg/mL |  |  |  |
| CN[C@H](CC(C)C)C(=O)N[C@H]1C(=O)N[C@@H](CC(N)=O)C(=O)N[C@H]2C(=O)N[C@H]3C(=O)N[C@H](C(=O)N[C@H](C(=O)NCCCNCCCCCCCCNCCCNC(=O)[C@H]4NC(=O)[C@H]5NC(=O)[C@H](NC(=O)[C@@H]6NC(=O)[C@H](CC(N)=O)NC(=O)[C@H](NC(=O)[C@@H](CC(C)C)NC)[C@H](O)c7ccc(c(Cl)c7)Oc7cc6cc(c7O[C@@H]6O[C@H](CO)[C@@H](O)[C@H](O)[C@H]6O[C@H]6C[C@](C)(N)[C@H](O)[C@H](C)O6)Oc6ccc(cc6Cl)[C@H]5O)c5ccc(O)c(c5)-c5c(O)cc(O)cc54)c4cc(O)cc(O)c4-c4cc3ccc4O)[C@H](O)c3ccc(c(Cl)c3)Oc3cc2cc(c3O)Oc2ccc(cc2Cl)[C@H]1O | 0.1 µM |  | 48 µM |  |
| CN[C@H](CC(C)C)C(=O)N[C@H]1C(=O)N[C@@H](CC(N)=O)C(=O)N[C@H]2C(=O)N[C@H]3C(=O)N[C@H](C(=O)N[C@H](C(=O)O)c4cc(OC)cc(OC)c4-c4cc3ccc4OC)[C@H](O)c3ccc(c(Cl)c3)Oc3cc2cc(c3OC)Oc2ccc(cc2Cl)[C@H]1O | 1.6 µg/mL |  |  |  |
| CN[C@H](CC(C)C)C(=O)N[C@H]1C(=O)N[C@@H](CC(N)=O)C(=O)N[C@H]2C(=N)N[C@H]3C(=O)N[C@H](C(=O)N[C@H](C(=O)O)c4cc(O)cc(O)c4-c4cc3ccc4O)[C@H](O)c3ccc(c(Cl)c3)Oc3cc2cc(c3O[C@@H]2O[C@H](CO)[C@@H](O)[C@H](O)[C@H]2O[C@H]2C[C@](C)(N)[C@H](O)[C@H](C)O2)Oc2ccc(cc2Cl)[C@H]1O |  |  | 0.5 µg/mL | 0.5 µg/mL |

Reference: ChEMBL document CHEMBL5230081, “Battle against Vancomycin-Resistant Bacteria: Recent Developments in Chemical Strategies” (J Med Chem, 2019)
